Laboratory results reported in ChEMBL document CHEMBL1201862, “PubChem BioAssay data set” (2004).
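Cells were grown in 96-well plates and exposed to each compound for 48 hours at five concentrations; endpoints were interpolated linearly between bracketing concentrations, or set to the highest concentration if not reached. Here, GI50 denotes the concentration required for 50% inhibition of growth.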 Active and inactive are the calls of the source. Rule as the data show it: active = GI50 up to about 1.1 µM and inactive = higher.

Legend:
Assay in all cases: DTP human tumour cell line panel, 48 h
TK-10 = test system: TK-10
LXFL 529 = test system: LXFL 529
SW-620 = test system: SW-620
SNB-75 = test system: SNB-75
LOX IMVI = test system: LOX IMVI
RXF 393 = test system: RXF 393
SNB-78 = test system: SNB-78
M19-MEL = test system: M19-MEL
KM-20L2 = test system: KM-20L2
SN12C = test system: SN12C
SF-268 = test system: SF-268
SF-295 = test system: SF-295
SF-539 = test system: SF-539
SK-MEL-5 = test system: SK-MEL-5
M14 = test system: M14
U-251 = test system: U-251
SK-OV-3 = test system: SK-OV-3
NCI-H522 = test system: NCI-H522
HCT-15 = test system: HCT-15
SK-MEL-2 = test system: SK-MEL-2
DMS-273 = test system: DMS-273
OVCAR-3 = test system: OVCAR-3
HL-60 = test system: HL-60
CCRF-CEM = test system: CCRF-CEM
NCI-H226 = test system: NCI-H226
HCC 2998 = test system: HCC 2998
UACC-257 = test system: UACC-257
SNB-19 = test system: SNB-19
A549 = test system: A549
COLO 205 = test system: COLO 205
NCI-H460 = test system: NCI-H460
NCI-H23 = test system: NCI-H23
HOP-62 = test system: HOP-62
DLD-1 = test system: DLD-1
IGROV-1 = test system: IGROV-1
EKVX = test system: EKVX
OVCAR-8 = test system: OVCAR-8
786-0 = test system: 786-0
OVCAR-4 = test system: OVCAR-4
MOLT-4 = test system: MOLT-4
UO-31 = test system: UO-31
ACHN = test system: ACHN
HCT-116 = test system: HCT-116
Malme-3M = test system: Malme-3M
SK-MEL-28 = test system: SK-MEL-28
HT-29 = test system: HT-29
KM12 = test system: KM12
K562 = test system: K562
SR = test system: SR
UACC-62 = test system: UACC-62
XF498 = test system: XF498
HOP-92 = test system: HOP-92
A498 = test system: A498
DMS-114 = test system: DMS-114
RPMI-8226 = test system: RPMI-8226
OVCAR-5 = test system: OVCAR-5
CAKI-1 = test system: CAKI-1
HOP-18 = test system: HOP-18
Hs-578T = test system: Hs-578T
MCF7 = test system: MCF7
BT-549 = test system: BT-549
PC-3 = test system: PC-3
NCI/ADR-RES = test system: NCI/ADR-RES

SMILES: CCC(C)(C)NC1=C(NC(C)=O)C(=O)c2ccccc2C1=O
- GI50 (TK-10): > 75 µM (inactive)
- GI50 (LXFL 529): 45.6 µM (inactive)
- GI50 (SW-620): 35.1 µM (inactive)
- GI50 (SNB-75): > 75 µM (inactive)
- GI50 (LOX IMVI): 29.8 µM (inactive)
- GI50 (RXF 393): 25 µM (inactive)
- GI50 (SNB-78): 35.2 µM (inactive)
- GI50 (M19-MEL): 13.3 µM (inactive)
- GI50 (KM-20L2): > 75 µM (inactive)
- GI50 (SN12C): > 75 µM (inactive)
- GI50 (SF-268): > 75 µM (inactive)
- GI50 (SF-295): > 75 µM (inactive)
- GI50 (SF-539): 24.4 µM (inactive)
- GI50 (SK-MEL-5): 13.5 µM (inactive)
- GI50 (M14): > 75 µM (inactive)
- GI50 (U-251): 36.1 µM (inactive)
- GI50 (SK-OV-3): > 75 µM (inactive)
- GI50 (NCI-H522): 10.2 µM (inactive)
- GI50 (HCT-15): 32.9 µM
- GI50 (SK-MEL-2): 21 µM (inactive)
- GI50 (DMS-273): 53.5 µM (inactive)
- GI50 (OVCAR-3): 34.8 µM (inactive)
- GI50 (HL-60): 16.7 µM (inactive)
- GI50 (CCRF-CEM): 17 µM (inactive)
- GI50 (NCI-H226): > 75 µM (inactive)
- GI50 (HCC 2998): > 75 µM (inactive)
- GI50 (UACC-257): 20.3 µM (inactive)
- GI50 (SNB-19): > 75 µM (inactive)
- GI50 (A549): > 75 µM (inactive)
- GI50 (COLO 205): 29.4 µM (inactive)
- GI50 (NCI-H460): 39.5 µM (inactive)
- GI50 (NCI-H23): 18.9 µM (inactive)
- GI50 (HOP-62): > 75 µM (inactive)
- GI50 (DLD-1): 43.1 µM (inactive)
- GI50 (IGROV-1): > 75 µM (inactive)
- GI50 (EKVX): > 75 µM (inactive)
- GI50 (OVCAR-8): 54.8 µM (inactive)
- GI50 (786-0): > 75 µM (inactive)
- GI50 (OVCAR-4): > 75 µM (inactive)
- GI50 (MOLT-4): 13.9 µM (inactive)
- GI50 (UO-31): 27.5 µM (inactive)
- GI50 (ACHN): 15.2 µM (inactive)
- GI50 (HCT-116): 17.7 µM (inactive)
- GI50 (Malme-3M): 28.7 µM (inactive)
- GI50 (SK-MEL-28): 61.5 µM (inactive)
- GI50 (HT-29): > 75 µM (inactive)
- GI50 (KM12): 57.3 µM (inactive)
- GI50 (K562): 20.8 µM (inactive)
- GI50 (SR): 31.3 µM (inactive)
- GI50 (UACC-62): 24.9 µM (inactive)
- GI50 (XF498): 14.4 µM (inactive)

SMILES: Cc1c2ccncc2c(C)c2c1[nH]c1ccc(O)c(OCC(F)(F)F)c12
- GI50 (TK-10): 13.6 µM (inactive)
- GI50 (LXFL 529): 5.12 µM (inactive)
- GI50 (SW-620): 3.55 µM (inactive)
- GI50 (SNB-75): 9.93 µM (inactive)
- GI50 (LOX IMVI): 1.38 µM (inactive)
- GI50 (SNB-78): 4.47 µM (inactive)
- GI50 (KM-20L2): 12.2 µM (inactive)
- GI50 (SN12C): 8.2 µM (inactive)
- GI50 (SF-268): 8.67 µM (inactive)
- GI50 (SF-295): 5.21 µM (inactive)
- GI50 (SF-539): 6.05 µM (inactive)
- GI50 (SK-MEL-5): 5.56 µM (inactive)
- GI50 (HOP-92): 5.47 µM (inactive)
- GI50 (M14): 9.55 µM (inactive)
- GI50 (U-251): 2.7 µM (inactive)
- GI50 (SK-OV-3): 10.2 µM (inactive)
- GI50 (NCI-H522): 4.5 µM (inactive)
- GI50 (SK-MEL-2): 12 µM (inactive)
- GI50 (DMS-273): 1.79 µM (inactive)
- GI50 (OVCAR-3): 7.8 µM (inactive)
- GI50 (HL-60): 2.9 µM (inactive)
- GI50 (CCRF-CEM): 2.33 µM (inactive)
- GI50 (A498): 15.2 µM (inactive)
- GI50 (NCI-H226): 8.13 µM (inactive)
- GI50 (HCC 2998): 9.42 µM (inactive)
- GI50 (UACC-257): 10.6 µM (inactive)
- GI50 (SNB-19): 2.11 µM (inactive)
- GI50 (A549): 3.9 µM (inactive)
- GI50 (DMS-114): 2.44 µM (inactive)
- GI50 (COLO 205): 11.9 µM (inactive)
- GI50 (NCI-H460): 2.18 µM (inactive)
- GI50 (NCI-H23): 6.1 µM (inactive)
- GI50 (HOP-62): 10.8 µM (inactive)
- GI50 (DLD-1): 8 µM (inactive)
- GI50 (RPMI-8226): 2.1 µM (inactive)
- GI50 (OVCAR-5): 12.6 µM (inactive)
- GI50 (IGROV-1): 8.22 µM (inactive)
- GI50 (EKVX): 10.3 µM (inactive)
- GI50 (OVCAR-8): 3.03 µM (inactive)
- GI50 (786-0): 2.01 µM (inactive)
- GI50 (OVCAR-4): 4.08 µM (inactive)
- GI50 (MOLT-4): 2.01 µM (inactive)
- GI50 (UO-31): 9.66 µM (inactive)
- GI50 (HCT-116): 2.39 µM (inactive)
- GI50 (CAKI-1): 9.62 µM (inactive)
- GI50 (Malme-3M): 11.9 µM (inactive)
- GI50 (SK-MEL-28): 10.8 µM (inactive)
- GI50 (HT-29): > 7.5 µM (inactive)
- GI50 (K562): 3.16 µM (inactive)
- GI50 (UACC-62): 10.5 µM (inactive)
- GI50 (XF498): 12.6 µM (inactive)

SMILES: COc1cc(CNc2ccc(SC)cc2)cc(OC)c1OC
- GI50 (LXFL 529): 18.4 µM (inactive)
- GI50 (SW-620): 4.02 µM (inactive)
- GI50 (LOX IMVI): 9.42 µM (inactive)
- GI50 (SNB-78): 48.3 µM (inactive)
- GI50 (KM-20L2): 4.3 µM (inactive)
- GI50 (HOP-18): 33.5 µM (inactive)
- GI50 (Hs-578T): 12.4 µM (inactive)
- GI50 (M14): 4.38 µM (inactive)
- GI50 (MCF7): 5.69 µM (inactive)
- GI50 (NCI-H522): 4.92 µM (inactive)
- GI50 (BT-549): 3.18 µM (inactive)
- GI50 (HCT-15): 4.08 µM
- GI50 (SK-MEL-2): 4.88 µM (inactive)
- GI50 (DMS-273): 3.08 µM (inactive)
- GI50 (OVCAR-3): 7.26 µM (inactive)
- GI50 (HL-60): 4.84 µM (inactive)
- GI50 (CCRF-CEM): 12.2 µM (inactive)
- GI50 (A498): 22 µM (inactive)
- GI50 (A549): 10 µM (inactive)
- GI50 (DMS-114): 5.15 µM (inactive)
- GI50 (COLO 205): 4.48 µM (inactive)
- GI50 (NCI-H460): 7.1 µM (inactive)
- GI50 (RPMI-8226): 11.9 µM (inactive)
- GI50 (OVCAR-5): 32.1 µM (inactive)
- GI50 (EKVX): 49.7 µM (inactive)
- GI50 (PC-3): 12.4 µM (inactive)
- GI50 (786-0): 14.6 µM (inactive)
- GI50 (OVCAR-4): 46.9 µM (inactive)
- GI50 (MOLT-4): 4.85 µM (inactive)
- GI50 (UO-31): 20 µM (inactive)
- GI50 (HCT-116): 6.93 µM (inactive)
- GI50 (Malme-3M): 11 µM (inactive)
- GI50 (NCI/ADR-RES): 3.78 µM (inactive)
- GI50 (HT-29): 4.39 µM (inactive)
